Substitutions are numbered along the chain they refer to. Entries after “also recorded” stand apart in the source; their conditions may differ.

Data on 17 compounds can be found in PMC9525908, “α-Crystallin chaperone mimetic drugs inhibit lens γ-crystallin aggregation: Potential role for cataract prevention” (The Journal of Biological Chemistry, 2022).

Holding throughout (assay type): biochemical
Assay [1] has as its system bovine gamma crystallins. As to the kind of experiment: Screen: H2O2 and heat mediated aggregation of bovine gamma crystallins, turbidimetry at 600 nm. As to conditions: 500 μM compound, H2O2 with or without added thermal stress. On the procedure:
For the initial screen, a microtiter plate assay was developed in which bovine crystallins (2 mg/ml of 50 mM K3PO4 buffer, pH 7.2 [buffer A]) were exposed to H2O2 at varying concentrations (1–50 mM) for 12 to 36 h, upon which turbidity developed (at 50 mM H2O2 concentration) in both β- and γ-crystallins (Fig. 1, A and B). […] This was determined by turbidimetry at 600 nm (Fig. 1C) and confirmed using visual assessment of solution transparency over a fine text as well as the presence of cloudy aggregates visible by dark field microscopy (Fig. 1D). The drug:protein stoichiometric ratio was about 5:1. The wavelength of 600 nm was chosen to minimize interference by colored compounds, many of which absorb below 500 nm (Fig. 1E).
Wells were filled with 90 μl calf γ-crystallin-rich protein solution (pool 4 at 2 mg/ml) followed by 0.5 to 5.0 μl of drug (all 10 mM stock solution in DMSO) as supplied by the manufacturer and 10 μl H2O2 (450 mM stock solution in water) and sealed with sticky Applied Biosystems MicroAmp Clear Adhesive films (Life Technologies). Control wells received DMSO only. […] In order to quantitate the impact of the drugs on aggregation, a fitness plot was created (Fig. 1 C) that allowed us to identify wells with enhanced/worsening versus suppressed crystallin aggregation. In addition, aggregation in each well was also visually assessed by two independent “blinded” readers for the ability to read fine print through each well by placing the plates over small font text (Fig. 1D). Both machine and visual readouts were reconciled in order to increase robustness.

Assay [2] has as its target T1, HγD (Homo sapiens, UniProt P07320).
T1 construct: made in house; host or cells: E. coli BL21(DE3) pLysS, pET3d vector
T1 sequence (P07320 1-174): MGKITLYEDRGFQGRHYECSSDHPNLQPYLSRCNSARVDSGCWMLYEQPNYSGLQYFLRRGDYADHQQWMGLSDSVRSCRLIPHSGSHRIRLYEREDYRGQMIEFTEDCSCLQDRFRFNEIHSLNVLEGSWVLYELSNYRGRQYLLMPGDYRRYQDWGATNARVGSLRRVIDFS
In words: Thermal aggregation (72 °C) turbidity assay, recombinant HγD. On the procedure: For refinement of the aforementioned screen, these compounds were tested at concentrations varying from 50 to 500 μM and 1.5 mg/ml concentration of recombinant HγD, human gamma S (HγS), its deamidation mutants γS_N14, γS_N76, γS_N143 and its triple mutant γSTM (Fig. 1F). In addition, other drugs and compounds that tested positive in the initial screen were also included, such as escin (E), hematein (I), citric acid (CA), docusate sodium (DS), and sennoside A (S) (Fig. S1B). […] For a review, see the study by Roskamp et al. ([38]). […] Thus, drug C and drug G emerged as the strongest antidenaturation/aggregation and potential anticataract drugs. For the mechanistic studies below these two compounds together with either drug M, chosen mostly as negative control, or the entire set of six compounds were used for comparison purpose, whereby the words “drug” or “compound” are used interchangeably in the studies later.
For end-point assays, HγD and MγS (1 mg/ml, 100 μl) in 50 mM K3PO4 buffer (pH 7.2) in set of triplicates in transparent flat bottom 96-well plates were heated at 72 °C for 20 min in the presence and absence of selected drugs at varying concentrations. Absorbance was measured at 600 nm with a SpectraMax iD5 (Molecular Devices).
HγD protein (2.5 mg/ml buffer A) was incubated at 72 °C for 20 min without or with 100 or 400 μM drug G or C in buffer A. Final DMSO concentration was 5% in all samples. […] Therefore, samples with and without 400 μM drug G were chosen for identification of drug G-induced miscleavage sites upon digestion with 25:1 protein:trypsin ratio (sequencing grade modified trypsin; Promega) in buffer A. After 4 h, samples were frozen at −80 °C until processed for determination of miscleavage sites using proteomics analysis. LC–MS/MS analysis was performed on an Orbitrap Eclipse mass spectrometer (Thermo Fisher Scientific) coupled with a Waters nanoAcquity UPLC system (Waters) in total 90 min run using a linear gradient range from 0 to 42% solvent B (0.1% formic acid in acetonitrile) versus solvent A (0.1% formic acid in water) at a flow rate of 300 nl/min. MS1 full mass spectra were acquired in the Orbitrap mass analyzer at the resolution of 120 K. MS/MS tandem mass spectra were generated in the ion trap mass analyzer by collision-induced dissociation of peptide ions at a normalized collision energy of 35%. The resulting MS/MS spectra were searched against human gamma D protein database using Mass Matrix software (MassMatrix, Inc) with the mass errors of 10 ppm and 0.8 Da for MS1 and MS/MS scans, respectively. The oxidation of methionine was set for variable modifications, and three miscleavages were allowed for the search.
(§1) Final DMSO concentration was 5% including in control samples. Microtiter plates were first incubated for 10 min at 72 °C and reincubated for 10 more min. Absorbance was measured at both 10 and 20 min total incubation time.

Assay [3] relates to Bovine γ-crystallins. As to the kind of experiment: Thermal aggregation (72 °C) turbidity assay, bovine γ-crystallins (pool 4). Conditions: for Thermal denaturation inhibitory activity in subscreen: 150 μM; for Thermal denaturation inhibitory activity in subscreen / % Suppression: 72 °C 20 min; for % Suppression: 75 μM protein, 125 μM or less inhibitor (1.7:1). On the procedure:
Candidate compounds were rescreened using thermal denaturation upon heating at 72 °C for 20 min according to Chen et al. ([36]) in order to select for compounds with chaperone rather than antioxidant activity since a large number of the latter already exist in the cataract field ([37]).
(§2) For a review, see the study by Roskamp et al. ([38]). […] For the mechanistic studies below these two compounds together with either drug M, chosen mostly as negative control, or the entire set of six compounds were used for comparison purpose, whereby the words “drug” or “compound” are used interchangeably in the studies later.
All assays were carried out manually in CORNING #9017 Costar Assay 96-well plates. Wells were filled with 90 μl calf γ-crystallin-rich protein solution (pool 4 at 2 mg/ml) followed by 0.5 to 5.0 μl of drug (all 10 mM stock solution in DMSO) as supplied by the manufacturer and 10 μl H2O2 (450 mM stock solution in water) and sealed with sticky Applied Biosystems MicroAmp Clear Adhesive films (Life Technologies). Control wells received DMSO only. Plates were shaken for 2 min and incubated from 24 to 72 h in a culture room at 37 °C. […] A second reading was performed following a heat shock of 20 min at 72 °C as described by Chen et al. ([36]) in order to capture drugs with heat-resistant chaperone activity. In order to quantitate the impact of the drugs on aggregation, a fitness plot was created (Fig. 1 C) that allowed us to identify wells with enhanced/worsening versus suppressed crystallin aggregation. In addition, aggregation in each well was also visually assessed by two independent “blinded” readers for the ability to read fine print through each well by placing the plates over small font text (Fig. 1D). Both machine and visual readouts were reconciled in order to increase robustness.
as §1

Assay [4] addresses T2, WT-MγS (Mus musculus, UniProt O35486).
T2 construct: made in house; host or cells: E. coli BL21(DE3) pLysS, pET17b vector
T2 sequence (O35486 1-178): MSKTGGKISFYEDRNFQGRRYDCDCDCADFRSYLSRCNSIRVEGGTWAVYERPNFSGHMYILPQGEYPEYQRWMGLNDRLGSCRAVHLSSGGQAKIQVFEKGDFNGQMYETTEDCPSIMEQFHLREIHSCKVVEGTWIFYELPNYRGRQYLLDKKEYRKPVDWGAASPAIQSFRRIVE
As to the kind of experiment: End-point heat-mediated turbidity assay, WT-MγS. Conditions: 400 μM drug, 72 °C, protein above 0.5 mg/ml. As for the experimental part: For end-point assays, HγD and MγS (1 mg/ml, 100 μl) in 50 mM K3PO4 buffer (pH 7.2) in set of triplicates in transparent flat bottom 96-well plates were heated at 72 °C for 20 min in the presence and absence of selected drugs at varying concentrations. Absorbance was measured at 600 nm with a SpectraMax iD5 (Molecular Devices). […]
as §1

In assay [5] the target is T3, HγS (Homo sapiens, UniProt P22914).
T3 sequence (P22914 1-178): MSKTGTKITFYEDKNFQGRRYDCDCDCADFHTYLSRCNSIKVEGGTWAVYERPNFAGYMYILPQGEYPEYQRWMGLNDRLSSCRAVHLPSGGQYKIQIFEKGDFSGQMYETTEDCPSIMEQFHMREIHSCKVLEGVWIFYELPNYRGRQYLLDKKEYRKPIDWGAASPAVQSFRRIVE
As to the kind of experiment: Thermal aggregation (72 °C, 20 min) turbidity assay, HγS. As to conditions: HγS; 75 μM protein, 125 μM or less inhibitor (1.7:1), 72 °C 20 min.
Excerpt: as §2

Assay [6] has as its target T4, HγS_N143D (Homo sapiens, UniProt P22914, N144D).
T4 sequence (P22914 1-178 N144D): T3 sequence (P22914 1-178) with N144D
As to the kind of experiment: Thermal aggregation (72 °C, 20 min) turbidity assay, HγS_N143D. As to conditions: HγS_N143D; 75 μM protein, 125 μM or less inhibitor (1.7:1), 72 °C 20 min.
Excerpt: as §2

Regarding `Cc1c(C(=O)O)c(O)cc2c1C(=O)c1c(O)c(C3O[C@H](CO)[C@@H](O)[C@H](O)[C@H]3O)c(O)c(O)c1C2=O` (stereo in doubt) [carmine], the “Outcome in the library screen (effect on aggregation/turbidity at 600 nm)” value in assay [1] is listed as “no impact”. Still for that read-out and setting: to `O=C(O)CC(O)(CC(=O)O)C(=O)O` [CA, citric acid] belongs “positive”.

As for `CCCCCCCCCCCCCCCCC(C(=O)O)C(O)(CC(=O)O)C(=O)O` (centres unmarked) [drug A, agaric acid], the “Effect on HγD aggregation at low protein” value in assay [2] (400 μM drug, 72 °C) was “not”. For the same compound, the “Effect on HγD at 2.0 mg/ml and 20 min” value in assay [2] (400 μM drug, 72 °C, 20 min) is recorded as “suppressed; also recorded: protects”. For the same compound, the “Effect on BGC aggregation at 2.0 mg/ml at 10 min” value in assay [3] (400 μM drug, 72 °C, 10 min) is on record as “improved BGC aggregation; also recorded: protects”. Further, the “Effect on MγS absorbance” value in assay [4] is on record as “blocked absorbance; also recorded: protects”. Take `CCCCC(CC)COC(=O)CC(C(=O)OCC(CC)CCCC)S(=O)(=O)O` (centres unmarked) [drug DS, docusate sodium]: the “Outcome in the library screen (effect on aggregation/turbidity at 600 nm)” value in assay [1] was “positive”.

Regarding `CC1=C(CCC(=O)O)c2cc3[nH]c(cc4nc(cc5[nH]c(cc1n2)c(C)c5C(C)O)C(C)=C4C(C)O)c(C)c3CCC(=O)O` (centres unmarked) [drug H, hematoporphyrin], the “Outcome in the library screen (effect on aggregation/turbidity at 600 nm)” value in assay [1] was “positive”. Also, the “Thermal denaturation inhibitory activity in subscreen” value in assay [3] is “thermal denaturation inhibitory activity”. `O=C1C=C2CC3(O)COc4c(ccc(O)c4O)C3=C2C=C1O` (centres unmarked) [drug I, hematein]: in assay [1], the “Outcome in the library screen (effect on aggregation/turbidity at 600 nm)” value is on record as “positive”. Take `O=C(O)c1cc(O)c2c(c1)[C@H]([C@H]1c3cc(C(=O)O)cc(O)c3C(=O)c3c(O[C@@H]4O[C@H](CO)[C@@H](O)[C@H](O)[C@H]4O)cccc31)c1cccc(O[C@@H]3O[C@H](CO)[C@@H](O)[C@H](O)[C@H]3O)c1C2=O` [drug S, sennoside A]: in assay [1], the “Outcome in the library screen (effect on aggregation/turbidity at 600 nm)” value is “positive”. For the compound `CCCCCCCCCCCCCCOS(=O)(=O)[O-].[Na+]` [drug T, tetradecyl sulfate sodium], the “% Suppression” value in assay [5] is listed as 40%; in assay [6], 42%. Besides, the “Thermal denaturation inhibitory activity in subscreen” value in assay [3] is on record as “thermal denaturation inhibitory activity”.

For the compound `C=CCCCCCCCCCCCC(O)CC(O)CO` (centres unmarked) [drug V, avocadene], the “Thermal denaturation inhibitory activity in subscreen” value in assay [3] is “thermal denaturation inhibitory activity”. Besides, the “% Suppression” value in assay [3] (Bovine γ-crystallins experiment 1) is given as 36%; in assay [3] (Bovine γ-crystallins experiment 2), 53%. For the compound `O=C(O[C@@H]1Cc2c(O)cc(O)cc2O[C@@H]1c1cc(O)c(O)c(O)c1)c1cc(O)c(O)c(O)c1` [epigallocatechin gallate], the “Outcome in the library screen (effect on aggregation/turbidity at 600 nm)” value in assay [1] is recorded as “improved aggregation”.

With `COc1ccc([C@@H]2CC(=O)c3c(O)cc(O)cc3O2)cc1O` [hesperetin], in assay [1], the “Outcome in the library screen (effect on aggregation/turbidity at 600 nm)” value is given as “no impact”. Turning to `CC(C)=CCC[C@@H](C)[C@H]1CC[C@@]2(C)C3=C(CC[C@]12C)[C@@]1(C)CC[C@H](O)C(C)(C)[C@@H]1CC3` [lanosterol], the “Outcome in the library screen (effect on aggregation/turbidity at 600 nm)” value in assay [1] is recorded as “no impact”. The same measure, in the same setting: to `O=c1c(O)c(-c2ccc(O)cc2O)oc2cc(O)cc(O)c12` [morin] belongs “no impact”; to `O=c1c(O)c(-c2ccc(O)c(O)c2)oc2cc(O)cc(O)c12` [quercetin], “worsened aggregation”; to escin [drug E], “positive”.

Consider hemin, for which the “Outcome in the library screen (effect on aggregation/turbidity at 600 nm)” value in assay [1] is listed as “positive”. Consider “pool 1: purified high–molecular weight bovine α-crystallins, used as positive control”, for which, in assay [2] (thermal aggregation), the “Inhibition of HγD aggregation by positive control” value is listed as “potently inhibit”. Besides, in assay [3] (thermal aggregation), the “Inhibition of pool 4 protein aggregation by positive control” value is on record as “potently inhibit”.
